Consider 20 compounds from PubChem BioAssay AID248 (DTP/NCI, 2004).

This experiment relates to L1210 leukemia ip in BDF1 mice, survival T/C. Kind of experiment: NCI In Vivo Anticancer Drug Screen. Data for tumor model L1210 Leukemia (intraperitoneal) in B6D2F1 (BDF1) mice. Conditions: endpoint: mean survival time, higher = longer survival. In a few lines:
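Each compound was tested against a transplantable tumor grown in mice. The endpoint was survival, with treated animals benchmarked against vehicle controls as a simple ratio.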

[1] abbreviates: dose: 50.0 mg/kg/injection, schedule: Q01DX001 (ip), vehicle: other.
The mark [2] stands for this setting: dose: 100.0 mg/kg/injection, schedule: Q01DX001 (ip), vehicle: other.
The mark [3] stands for this setting: dose: 100.0 mg/kg/injection, schedule: Q01DX001 (ip), vehicle: saline.
Setting [4] is: dose: 200.0 mg/kg/injection, schedule: Q01DX001 (ip), vehicle: saline.
The mark [5] stands for this setting: dose: 400.0 mg/kg/injection, schedule: Q01DX001 (ip), vehicle: saline.
Where [6] appears, read: dose: 100.0 mg/kg/injection, schedule: Q04DX003 (ip), vehicle: saline.
Setting [7] is: dose: 200.0 mg/kg/injection, schedule: Q04DX003 (ip), vehicle: saline.
[8] abbreviates: dose: 400.0 mg/kg/injection, schedule: Q04DX003 (ip), vehicle: saline.
[9] abbreviates: dose: 100.0 mg/kg/injection, schedule: Q01DX009 (ip), vehicle: Klucel (hydroxypropylcellulose) (HPC).
Where [10] appears, read: dose: 200.0 mg/kg/injection, schedule: Q01DX009 (ip), vehicle: Klucel (hydroxypropylcellulose) (HPC).
[11] abbreviates: dose: 400.0 mg/kg/injection, schedule: Q01DX009 (ip), vehicle: Klucel (hydroxypropylcellulose) (HPC).
Setting [12] is: dose: 100.0 mg/kg/injection, schedule: Q04DX003 (ip), vehicle: Klucel (hydroxypropylcellulose) (HPC).
The mark [13] stands for this setting: dose: 200.0 mg/kg/injection, schedule: Q04DX003 (ip), vehicle: Klucel (hydroxypropylcellulose) (HPC).
The mark [14] stands for this setting: dose: 400.0 mg/kg/injection, schedule: Q04DX003 (ip), vehicle: Klucel (hydroxypropylcellulose) (HPC).
Setting [15] is: dose: 100.0 mg/kg/injection, schedule: Q04DX002 (ip), vehicle: Klucel (hydroxypropylcellulose) (HPC).
The mark [16] stands for this setting: dose: 200.0 mg/kg/injection, schedule: Q04DX002 (ip), vehicle: Klucel (hydroxypropylcellulose) (HPC).
Where [17] appears, read: dose: 400.0 mg/kg/injection, schedule: Q04DX002 (ip), vehicle: Klucel (hydroxypropylcellulose) (HPC).
Setting [18] is: dose: 100.0 mg/kg/injection, schedule: Q01DX009 (ip), vehicle: saline.
[19] abbreviates: dose: 200.0 mg/kg/injection, schedule: Q01DX009 (ip), vehicle: saline.
Where [20] appears, read: dose: 100.0 mg/kg/injection, schedule: Q04DX003 (ip), vehicle: saline with Tween-80.
Where [21] appears, read: dose: 200.0 mg/kg/injection, schedule: Q04DX003 (ip), vehicle: saline with Tween-80.
[22] abbreviates: dose: 400.0 mg/kg/injection, schedule: Q04DX003 (ip), vehicle: saline with Tween-80.

Inconclusive results and toxic doses are left out.

For `C/C(=N\O)C(O)c1ccccc1` (stereo unspecified), the T/C by setting is: under setting [1], 97 % of control; under setting [2], 89 % of control; (dose: 200.0 mg/kg/injection, schedule: Q01DX001 (ip), vehicle: other) 97 % of control; (dose: 400.0 mg/kg/injection, schedule: Q01DX001 (ip), vehicle: other) 92 % of control.

Consider `CCCCC(=O)N/N=C/c1ccc(N(C)C)cc1`, for which the T/C under setting [3] is 91 % of control, the T/C under setting [4] was 87 % of control and the T/C under setting [5] is 95 % of control.

Turning to `CCCCCCCCSC(C)(C)C`, the T/C under setting [6] was 102 % of control, the T/C under setting [7] was 101 % of control and the T/C under setting [8] was 93 % of control.

For the compound `O=C(/C=C\c1ccc([N+](=O)[O-])cc1)OCCCCOC(=O)/C=C/c1ccc([N+](=O)[O-])cc1`, the T/C is, setting by setting: (dose: 50.0 mg/kg/injection, schedule: Q01DX001 (ip), vehicle: saline) 93 % of control; under setting [3], 96 % of control; under setting [4], 90 % of control; under setting [5], 87 % of control.

As to `NC(Cc1nn[nH]n1)C(=O)O` (stereo unspecified), the T/C was 102 % of control (dose: 100.0 mg/kg/injection, schedule: Q01DX009 (ip), vehicle: water); 96 % of control (dose: 100.0 mg/kg/injection, schedule: Q04DX003 (ip), vehicle: water); 102 % of control (dose: 200.0 mg/kg/injection, schedule: Q01DX009 (ip), vehicle: water); 94 % of control (dose: 200.0 mg/kg/injection, schedule: Q04DX003 (ip), vehicle: water); 98 % of control (dose: 400.0 mg/kg/injection, schedule: Q01DX009 (ip), vehicle: water); 88 % of control (dose: 400.0 mg/kg/injection, schedule: Q04DX003 (ip), vehicle: water).

Regarding `CCN(CC)c1ccc(/C=C\C(=O)c2ccccc2)cc1`, the T/C was 97 % of control under setting [9], 100 % of control under setting [10] and 100 % of control under setting [11].

For `CCOC(=O)c1ccc(N=NN(C)C(C)CC)cc1` (stereo unspecified), the T/C by setting is: (dose: 100.0 mg/kg/injection, schedule: Q01DX001 (ip), vehicle: Klucel (hydroxypropylcellulose) (HPC)) 113 % of control; under setting [12], 102 % of control; (dose: 200.0 mg/kg/injection, schedule: Q01DX001 (ip), vehicle: Klucel (hydroxypropylcellulose) (HPC)) 101 % of control; under setting [13], 118 % of control; (dose: 400.0 mg/kg/injection, schedule: Q01DX001 (ip), vehicle: Klucel (hydroxypropylcellulose) (HPC)) 124 % of control; under setting [11], 166 % of control. The T/C under setting [14] is 122 % of control.

In the case of `CCN(Cc1ccccc1)C(=O)NC(C)(C)C`, the T/C is, setting by setting: under setting [9], 98 % of control; under setting [10], 95 % of control.

`O=C1c2ccccc2C(=O)N1C1CCCCCCC1`: the T/C by setting is: under setting [15], 94 % of control; under setting [16], 100 % of control; under setting [17], 97 % of control.

Regarding `O=S1(=O)CCCCC1c1ccccc1` (stereo unspecified), the T/C was 87 % of control under setting [3]; 98 % of control under setting [18]; 122 % of control under setting [6]; 95 % of control under setting [4]; 87 % of control under setting [19]; 97 % of control under setting [7]. Further, the T/C under setting [5] is 93 % of control and the T/C under setting [8] is 98 % of control.

For `Cc1cc(N(CCCl)CCCl)ccc1C=Nc1ccc2c(c1)nc(C)n2C`, the T/C is 93 % of control under setting [15], 112 % of control under setting [16] and 97 % of control under setting [17].

On to `O=[N+]([O-])c1ccc(Oc2ccc(S(=O)(=O)F)cc2)cc1`, for which the T/C reads like this: under setting [9], 106 % of control; under setting [10], 97 % of control; under setting [11], 98 % of control.

In the case of `CCN(CC)CCOC(=O)c1ccccc1S(N)(=O)=O`, the T/C under setting [3] was 104 % of control, the T/C under setting [4] is 101 % of control and the T/C under setting [5] is 98 % of control.

Turning to `CN1CCC(OC(N)=O)CC1`, the T/C was 99 % of control under setting [18]; 103 % of control under setting [6]; 104 % of control under setting [19]; 103 % of control under setting [7]; 96 % of control (dose: 400.0 mg/kg/injection, schedule: Q01DX009 (ip), vehicle: saline); 101 % of control under setting [8].

As for `COc1ccc2c(c1)C1(C)CCCC(C)C1=CC2=O` (stereo unspecified), the T/C is, setting by setting: (dose: 25.0 mg/kg/injection, schedule: Q01DX001 (ip), vehicle: other) 100 % of control; under setting [1], 100 % of control; under setting [2], 97 % of control.

On to `CN1Cc2c(ccc3c2OCO3)[C@@H]2[C@H](O)Cc3cc4c(cc3[C@@H]21)OCO4`, for which the T/C (dose: 50.0 mg/kg/injection, schedule: Q01DX Z (ip), vehicle: carboxymethylcellulose (CMC)) is 102 % of control; the T/C (dose: 75.0 mg/kg/injection, schedule: Q01DX Z (ip), vehicle: carboxymethylcellulose (CMC)) was 108 % of control; the T/C (dose: 100.0 mg/kg/injection, schedule: Q01DX001 (ip), vehicle: carboxymethylcellulose (CMC)) was 102 % of control; the T/C (dose: 100.0 mg/kg/injection, schedule: Q01DX Z (ip), vehicle: carboxymethylcellulose (CMC)) was 102 % of control; the T/C under setting [20] is 101 % of control; the T/C (dose: 180.0 mg/kg/injection, schedule: Q04DX003 (ip), vehicle: Klucel (hydroxypropylcellulose) (HPC)) was 111 % of control. In addition, the T/C is 113 % of control (dose: 200.0 mg/kg/injection, schedule: Q01DX001 (ip), vehicle: carboxymethylcellulose (CMC)); 101 % of control under setting [21]; 98 % of control (dose: 266.0 mg/kg/injection, schedule: Q04DX003 (ip), vehicle: Klucel (hydroxypropylcellulose) (HPC)); 105 % of control (dose: 266.0 mg/kg/injection, schedule: Q04DX003 (ip), vehicle: saline); 98 % of control (dose: 300.0 mg/kg/injection, schedule: Q01DX Z (ip), vehicle: carboxymethylcellulose (CMC)); 102 % of control (dose: 400.0 mg/kg/injection, schedule: Q01DX001 (ip), vehicle: carboxymethylcellulose (CMC)). For the same compound, the T/C is 165 % of control under setting [22]; 111 % of control under setting [8]; 157 % of control (dose: 600.0 mg/kg/injection, schedule: Q04DX003 (ip), vehicle: Klucel (hydroxypropylcellulose) (HPC)).

As for `CCCCCCCCCCCCOC(=N)N1CCCC1`, the T/C was 96 % of control (dose: 8.8 mg/kg/injection, schedule: Q01DX Z (ip), vehicle: saline); 102 % of control (dose: 13.3 mg/kg/injection, schedule: Q01DX Z (ip), vehicle: saline); 100 % of control (dose: 20.0 mg/kg/injection, schedule: Q01DX Z (ip), vehicle: saline).

In the case of `COC(=O)C1C(=O)CCC2CN3CCc4c([nH]c5ccccc45)C3CC21` (stereo unspecified), the T/C (dose: 12.5 mg/kg/injection, schedule: Q04DX002 (ip), vehicle: saline with Tween-80) is 94 % of control; the T/C (dose: 25.0 mg/kg/injection, schedule: Q04DX002 (ip), vehicle: saline with Tween-80) was 100 % of control; the T/C (dose: 50.0 mg/kg/injection, schedule: Q04DX002 (ip), vehicle: saline with Tween-80) was 90 % of control.

For the compound `COc1cc(C(=O)N2CCN(Cc3ccccc3)CC2)cc(OC)c1OC`, the T/C by setting is: under setting [12], 93 % of control; under setting [13], 107 % of control; under setting [14], 93 % of control.

As to `Cc1ccccc1C(=O)NCC(=O)O`, the T/C (dose: 100.0 mg/kg/injection, schedule: Q01DX009 (ip), vehicle: saline with Tween-80) is 91 % of control; the T/C under setting [20] was 95 % of control; the T/C (dose: 200.0 mg/kg/injection, schedule: Q01DX009 (ip), vehicle: saline with Tween-80) is 91 % of control; the T/C under setting [21] was 94 % of control; the T/C (dose: 400.0 mg/kg/injection, schedule: Q01DX009 (ip), vehicle: saline with Tween-80) is 86 % of control; the T/C under setting [22] was 98 % of control.
